In article PMC10861852, “Loss of activation by GABA in vertebrate delta ionotropic glutamate receptors” (Proceedings of the National Academy of Sciences of the …, 2024):
Positions count from the first letter of the chain named.

Key:
[1] = target: T1, AcaGluD (Acanthaster planci, UniProt A0A8B7XXR5); experiment: Two-electrode voltage clamp, ligand-gated currents in oocytes; type: cell-based; conditions: for inhibition of GABA-gated current / currents elicited when applied alone / enhancement of glutamate-gated currents: 100 μM; for inhibition of GABA-gated current: coapplied with ~EC30 GABA concentration; for enhancement of glutamate-gated currents: n = 5
T1 sequence (A0A8B7XXR5 24-958): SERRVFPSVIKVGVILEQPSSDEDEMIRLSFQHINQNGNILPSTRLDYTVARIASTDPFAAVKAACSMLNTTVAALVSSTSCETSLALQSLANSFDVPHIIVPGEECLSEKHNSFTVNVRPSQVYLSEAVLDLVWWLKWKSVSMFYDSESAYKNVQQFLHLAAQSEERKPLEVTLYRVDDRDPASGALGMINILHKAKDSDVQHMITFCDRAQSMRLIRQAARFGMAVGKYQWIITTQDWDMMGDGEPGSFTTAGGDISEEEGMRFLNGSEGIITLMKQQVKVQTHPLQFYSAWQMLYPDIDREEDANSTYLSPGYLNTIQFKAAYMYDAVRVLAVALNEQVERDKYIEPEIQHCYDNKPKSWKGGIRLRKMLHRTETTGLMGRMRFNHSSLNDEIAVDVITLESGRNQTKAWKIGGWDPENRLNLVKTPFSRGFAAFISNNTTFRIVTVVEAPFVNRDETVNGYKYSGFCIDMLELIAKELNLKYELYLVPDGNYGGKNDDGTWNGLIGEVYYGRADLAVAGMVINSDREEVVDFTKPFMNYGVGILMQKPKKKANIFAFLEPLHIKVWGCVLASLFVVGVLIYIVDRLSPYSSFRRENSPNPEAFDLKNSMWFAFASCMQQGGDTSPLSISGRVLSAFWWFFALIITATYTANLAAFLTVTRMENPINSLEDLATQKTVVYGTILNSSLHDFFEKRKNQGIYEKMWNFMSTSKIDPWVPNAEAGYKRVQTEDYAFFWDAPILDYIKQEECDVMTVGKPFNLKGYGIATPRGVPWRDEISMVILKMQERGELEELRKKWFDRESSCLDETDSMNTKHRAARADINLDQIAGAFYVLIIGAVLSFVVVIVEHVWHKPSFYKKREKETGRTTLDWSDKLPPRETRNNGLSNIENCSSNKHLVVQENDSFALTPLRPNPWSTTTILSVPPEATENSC

[2] = target: T2, RatGluD2^5x (Rattus norvegicus, UniProt Q63226, A686S/K694R/N720P/P806D/Y613F); experiment: Two-electrode voltage clamp, responses to ligands in mutant-expressing oocytes; type: cell-based; conditions: ligands 30 mM
T2 construct: expressed in transfected cells; host or cells: Xenopus laevis oocytes injected with mRNA
T2 sequence (Q63226 24-1007 Y613F/A686S/K694R/N720P/P806D): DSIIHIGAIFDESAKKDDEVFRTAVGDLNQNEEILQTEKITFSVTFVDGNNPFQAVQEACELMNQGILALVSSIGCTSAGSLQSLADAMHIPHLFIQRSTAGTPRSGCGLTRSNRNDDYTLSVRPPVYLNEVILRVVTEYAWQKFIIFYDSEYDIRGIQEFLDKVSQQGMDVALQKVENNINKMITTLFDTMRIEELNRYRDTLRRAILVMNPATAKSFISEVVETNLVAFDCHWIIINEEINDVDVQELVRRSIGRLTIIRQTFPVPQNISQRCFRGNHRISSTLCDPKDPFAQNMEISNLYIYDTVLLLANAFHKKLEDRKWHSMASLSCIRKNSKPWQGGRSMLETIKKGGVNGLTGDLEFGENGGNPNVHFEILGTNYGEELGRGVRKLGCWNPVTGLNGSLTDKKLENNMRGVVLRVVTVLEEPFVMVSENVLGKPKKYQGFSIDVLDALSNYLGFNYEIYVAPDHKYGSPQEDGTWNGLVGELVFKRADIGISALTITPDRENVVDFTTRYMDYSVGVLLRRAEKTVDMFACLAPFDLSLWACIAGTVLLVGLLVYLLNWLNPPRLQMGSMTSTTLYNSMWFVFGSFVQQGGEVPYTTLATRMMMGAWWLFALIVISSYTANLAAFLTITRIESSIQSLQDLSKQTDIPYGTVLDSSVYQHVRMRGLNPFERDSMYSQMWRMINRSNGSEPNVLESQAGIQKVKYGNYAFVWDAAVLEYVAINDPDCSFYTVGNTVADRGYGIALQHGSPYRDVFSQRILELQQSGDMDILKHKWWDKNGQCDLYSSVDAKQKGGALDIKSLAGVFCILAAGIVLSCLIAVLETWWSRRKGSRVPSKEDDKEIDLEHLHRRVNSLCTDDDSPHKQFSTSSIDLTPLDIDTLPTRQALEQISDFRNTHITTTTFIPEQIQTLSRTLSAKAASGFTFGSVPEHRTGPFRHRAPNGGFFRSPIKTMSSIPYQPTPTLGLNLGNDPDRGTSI
Excerpt: (§1) If the 10 mutations discussed above drove the loss of function in vertebrate delta iGluRs, one might expect that the latter could be “reawakened” via active invertebrate delta iGluR-like mutations here. We therefore engineered mutant RatGluD2 iGluRs to contain at these positions the equivalent residues from starfish delta iGluRs. These mutants were RatGluD2^5x, containing Y613F, A686S, K694R, N720P, and P806D substitutions (pink in Fig. 6A), and RatGluD2^9x, additionally containing N763K, D753Q, Q786M, and R787V (cyan in Fig. 6A).
(§2) Fig. 6. AcaGluD-like mutations alter RatGluD2 receptor function. (A) D-serine bound RatGluD2 from X-ray structure PDB:2v3u ([13]). Selected amino acid residues are indicated, colored, shown as sticks, and labeled 5×, 9×, 10×, and/or Lc according to the multiple mutants they were incorporated into. 10× mutant included 10×, 9×, and 5× positions. 9× included 9× and 5×. 5× included only 5×. […] (B–E) Example current responses to different neurotransmitter ligands (30 mM) and to pore blocker pentamidine (Pent, 100 μM) in oocytes expressing indicated RatGluD2 mutants. The dashed line indicates zero current baseline. (F) Individual (dots) and mean (columns) responses to ligands in oocytes expressing indicated RatGluD2 mutants (n = 4 to 5).

[3] = target: T3, RatGluD2^9x (Rattus norvegicus, UniProt Q63226, A686S/D753Q/K694R/N720P/N763K/P806D/Q786M/R787V/Y613F); experiment: as above; type: cell-based; conditions: ligands 30 mM
T3 construct: expressed in transfected cells; host or cells: Xenopus laevis oocytes injected with mRNA
T3 sequence (Q63226 24-1007 Y613F/A686S/K694R/N720P/D753Q/N763K/Q786M/R787V/P806D): T2 sequence (Q63226 24-1007 Y613F/A686S/K694R/N720P/P806D) with D730Q, N740K, Q763M, R764V
Excerpt: as §1, §2

[4] = target: T4, WT RatGluD2 (Rattus norvegicus, UniProt Q63226); experiment: Two-electrode voltage clamp in oocytes; type: cell-based; conditions: n = 4
T4 construct: expressed in transfected cells; host or cells: Xenopus laevis oocytes injected with mRNA
T4 sequence (Q63226 24-1007): T2 sequence (Q63226 24-1007 Y613F/A686S/K694R/N720P/P806D) with F590Y, S663A, R671K, P697N, D783P

[5] = target: T5, RatGluD2^Lc (Rattus norvegicus, UniProt Q63226, A654T); experiment: Two-electrode voltage clamp, inhibition of constitutive current in oocytes; conditions: each n = 4
T5 sequence (Q63226 24-1007 A654T): T2 sequence (Q63226 24-1007 Y613F/A686S/K694R/N720P/P806D) with F590Y, A631T, S663A, R671K, P697N, D783P
Excerpt: (C) Left panels, example recordings of oocytes expressing A654T lurcher-mutant RatGluD2 (RatGluD2Lc) in response to indicated AMPA iGluR antagonists and D-serine. Dashed line, zero current baseline. Right panel, % inhibition at different oocytes (dots) and resulting means (columns).

SMILES	inhibition of GABA-gated current [1]	currents elicited when applied alone [1]	enhancement of glutamate-gated currents [1]	effect on oocytes expressing WT RatGluD2 [4]	inhibition of constitutive currents [5]	further results
O=C(O)c1cc(=O)c2c(Cl)cc(Cl)cc2[nH]1 [5,7-dichlorokynurenic acid]	11 ± 5%					
C[C@@H](NCc1cc(Br)cc2[nH]c(=O)c(=O)[nH]c12)P(=O)(O)O [CGP-78608]	9 ± 3%					
N[C@@H](CCC(=O)O)C(=O)O [glutamate]						EC50 ([1]; 0 Ca2+, n = 4): ~30 mM; maximum ligand-gated current amplitude ([1]; in the presence of 1.8 mM Ca2+): 5.8 ± 0.6 µA; maximum ligand-gated current amplitude ([1]; nominally Ca2+-free solutions): 0.28 ± 0.02 µA; current response to ligand [2]: no responses; current response to ligand [3]: no responses
N#Cc1cc2[nH]c(=O)c(=O)[nH]c2cc1[N+](=O)[O-] [CNQX]	81 ± 4%	elicited no currents	no effect	no effect	10 ± 0.2%	
O=[N+]([O-])c1cc2nc(O)c(O)nc2cc1[N+](=O)[O-] [DNQX]	53 ± 3%	elicited no currents	34 ± 3%	no effect	11 ± 0.2%	
